Patent publication US12637461B2, “Compounds for the activation of AMPK” (PFIZER INC., priority 2022, dated 2026)

Molecular target: T1, human AMPK α2β2γ3 (Homo sapiens, UniProt O43741+P54646+Q9UGI9)
T1 construct: expressed in transfected cells; host or cells: HEK293AD cells, MaxCyte bulk electroporation
Test: Primary cellular assay: γ3 associated phospho-Thr172 AMPK detection (custom pAMPK Surefire AlphaLISA) in α2β2γ3 bulk transiently transfected HEK293 cells
Format: cell-based
Conditions: activation of human AMPK α2β2γ3 (γ3 pThr172 AMPK signal) in transiently transfected HEK293 cells, 20 minutes compound incubation; for Emax: 20 min, read-out: Assay GMean Asy. Max (%); for EC50: geometric mean EC50, read-out: Assay GMean EC50
Protocol: Primary Cellular Assay—γ3 Associated Phospho-Thr172 AMPK Detection in α2β2γ3 Bulk Transiently Transfected HEK293 Cells
The cellular potencies of the compounds were evaluated using a custom pAMPK Surefire AlphaLISA designed to assess γ3 associated phospho-Thr172 AMPK and modulation by small molecules in AMPK α2β2γ3 transiently transfected HEK293 cells.
A pAMPK Surefire AlphaLISA (PE-ASLU-PAMPK) assay available through Perkin Elmer was modified to selectively assess γ3 pThr172 AMPK content (as opposed to total pThr172 AMPK) by labeling a γ3 antibody with a CaptSure™ tag and substituting it for the total α1c/α2 AMPK labeled antibodies in the kit. In the modified assay, the overall abundance of γ3 AMPK is recognized by the CaptSure γ3 antibody and the phosphorylated AMPK is recognized by biotinylated pThr172 antibody. Subsequent reactivity with streptavitin donor beads and anti CaptSure conjugated acceptor beads brings the molecules into close proximity. Upon excitation at 680 nm, the donor bead converts ambient oxygen to a more excited singlet state which reacts with the acceptor bead and emits light at 520 to 620 nm. The intensity of the signal is proportional to the level of γ3 associated pThr172 AMPK phosphorylation.
In short, AMPK-α2+β2+γ3 MaxCyte bulk-transfected HEK293AD cells were thawed in growth media (DMEM High glucose+10% FBS) in a collagen-coated T150 flask and the cells were allowed to adhere and grow overnight in a 37° C. incubator. The following day, the cells were harvested and resuspended in plating medium (DMEM Low glucose+10% FBS) at a concentration of 100,000 cells per mL and 50 μL of this cell suspension was added to all wells of a 384-well plate using a Multidrop Combi. The cells were allowed to adhere and grow for 2 days in a 37° C. incubator. On assay day, compounds were diluted in 100% dimethyl sulfoxide (DMSO) in a 11 dose, half log dilution scheme and spotted in the cell plates at 1000× the final concentration. Compound incubations were performed in plating media for 20 minutes. Cells were washed with PBS, lysed and the signal was generated by subsequent additions of RB1 reagent from the kit, 1:1000 CaptSure γ3 labeled antibody in 1× immunoassay buffer, Anti-CaptSure acceptor beads and Streptavitin donor beads at final concentration of […]. The γ3 pThr172 AMPK signal was developed using EnVision™ multilabel reader (Perkin Elmer) using Alphascreen settings. The fluorescence emission was used to calculate the % effect relative to the HPE (30 μM) and ZPE (DMSO). EC50 curves were generated with the ActivityBase software using the XLfit model 205 to determine EC50 and Emax values.
For screening purposes, bulk AMPK-α2+β2+γ3 MaxCyte bulk transfection into HEK293AD cells were generated to support SAR screening as follows.
HEK293AD cells were seeded into 10 flasks at 2.7×10^7 cells per flask. The following day 12 mL of Trypl E dissociation reagent were added to each flask to lift the cells and the cells were then spun at 300×g for 5 minutes. Cells were washed once in MaxCyte EP buffer and then resuspended in MaxCyte EP buffer at 1×10^8 cells per mL. For transfection, 500×10^6 cells in 500 μl MaxCyte EP buffer were placed in a CL1.1 Processing Assembly (electroporation cell) with 1 mg/mL ([…]) of each of the plasmids pcDNA3.1(+)-human AMPK alpha 2, pcDNA3.1(+)-human AMPK beta 2 and pcDNA3.1(+)-human AMPK gamma 3 and the electroporation was carried out on the MaxCyte STX using the HEK293 electroporation protocol. Following electroporation, cells were transferred to a T175 flask containing growth medium (DMEM High glucose+10% FBS) and allowed to recover for 25 minutes, then the cells were resuspended to final volume of 900 mL and distributed into 6XT175 flasks and allowed to adhere and grow overnight in a 37° C. incubator. […]

[1] = geometric mean of the asymptotic max

T1 sequence (P54646 whole entry): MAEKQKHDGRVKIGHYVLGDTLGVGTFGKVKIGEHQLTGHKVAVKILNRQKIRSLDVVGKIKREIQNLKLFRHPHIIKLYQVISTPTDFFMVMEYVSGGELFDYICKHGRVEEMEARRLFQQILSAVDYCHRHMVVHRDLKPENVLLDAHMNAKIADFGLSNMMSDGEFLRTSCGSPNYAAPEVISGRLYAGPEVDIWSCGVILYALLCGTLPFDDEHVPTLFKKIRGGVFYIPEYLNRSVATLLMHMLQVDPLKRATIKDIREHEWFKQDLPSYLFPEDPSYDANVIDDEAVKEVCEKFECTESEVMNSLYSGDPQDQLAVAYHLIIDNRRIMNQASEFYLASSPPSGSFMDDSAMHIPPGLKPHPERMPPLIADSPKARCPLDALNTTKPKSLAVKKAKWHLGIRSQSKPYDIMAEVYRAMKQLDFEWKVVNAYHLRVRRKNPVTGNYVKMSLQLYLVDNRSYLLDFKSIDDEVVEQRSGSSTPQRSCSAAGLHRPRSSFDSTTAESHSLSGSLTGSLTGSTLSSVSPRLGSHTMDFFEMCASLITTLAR
T1 sequence (O43741 whole entry): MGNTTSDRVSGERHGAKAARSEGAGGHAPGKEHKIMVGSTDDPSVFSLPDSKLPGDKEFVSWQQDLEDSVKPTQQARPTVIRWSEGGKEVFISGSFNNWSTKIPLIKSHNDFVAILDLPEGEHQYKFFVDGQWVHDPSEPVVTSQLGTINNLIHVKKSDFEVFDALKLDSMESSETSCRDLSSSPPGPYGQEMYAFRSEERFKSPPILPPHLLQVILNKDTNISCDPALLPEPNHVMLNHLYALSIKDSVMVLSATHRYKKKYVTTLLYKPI
T1 sequence (Q9UGI9 whole entry): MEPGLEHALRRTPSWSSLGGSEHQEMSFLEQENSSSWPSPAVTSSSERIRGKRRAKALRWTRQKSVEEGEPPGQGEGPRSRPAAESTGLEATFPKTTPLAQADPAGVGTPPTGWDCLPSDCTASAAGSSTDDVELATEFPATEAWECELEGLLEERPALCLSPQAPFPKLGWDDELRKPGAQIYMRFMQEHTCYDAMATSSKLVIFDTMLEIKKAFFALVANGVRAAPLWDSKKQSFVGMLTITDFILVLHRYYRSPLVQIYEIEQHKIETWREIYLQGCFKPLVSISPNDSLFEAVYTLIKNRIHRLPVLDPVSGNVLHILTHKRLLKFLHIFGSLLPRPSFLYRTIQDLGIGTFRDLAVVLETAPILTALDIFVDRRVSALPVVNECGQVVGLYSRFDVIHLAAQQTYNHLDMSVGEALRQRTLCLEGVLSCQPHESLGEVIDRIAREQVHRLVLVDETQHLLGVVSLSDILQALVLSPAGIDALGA

SMILES	Emax [1]	EC50	Assay GMean Asy. Max (%) [1]
Cc1c(F)ccc(C2(C)CN(c3ccc(CO)cn3)C(=O)c3cnc(NC4CN(C(=O)[C@@H]5C[C@@H]5F)C4)c(F)c32)c1F (single isomer, unassigned) [compound 105]	38.4%	0.0198 µM	
Cc1c(F)ccc(C2(C)CN(c3ccc(CO)cn3)C(=O)c3cnc(NC4CN(C(=O)N5C[C@@H]6C[C@H]5CO6)C4)c(F)c32)c1F (single isomer, unassigned) [compound 107]	119%	0.0327 µM	
CN1CCC(F)(C(=O)N2CC[C@@H](Nc3ncc4c(c3F)C(C)(c3cccc(Cl)c3F)CN(c3ncccc3F)C4=O)C2)CC1 (single isomer, unassigned) [compound 109]	81.7%	0.0762 µM	
CC1(c2cccc(Cl)c2F)CN(c2ncccc2F)C(=O)c2cnc(NC3CN(C(=O)[C@](C)(O)C(F)(F)F)C3)nc21 (single isomer, unassigned) [compound 111]	159%	0.342 µM	
C[C@]1(c2cccc(Cl)c2F)CN(c2ncccc2F)C(=O)c2cnc(NC3CN(C(=O)C4(O)CC4)C3)c(F)c21 [Example 1, (4R)-4-(3-Chloro-2-fluorophenyl)-5-fluoro-2-(3-fluoropyridin-2-yl)-6-{[1-(1-hydroxycyclopropane-1-carbonyl)azetidin-3-yl]amino}-4-methyl-3,4-dihydro-2,7-naphthyridin-1(2H)-one]	112%	0.0336 µM	
Cn1cc(F)c(N2C[C@](C)(c3cccc(Cl)c3F)c3c(cnc(NC4CN(C(=O)[C@@H]5C[C@@H]5F)C4)c3F)C2=O)n1 [Example 2, (4R)-4-(3-chloro-2-fluorophenyl)-5-fluoro-6-({1-[(1S,2S)-2-fluorocyclopropane-1-carbonyl]azetidin-3-yl}amino)-2-(4-fluoro-1-methyl-1H-pyrazol-3-yl)-4-methyl-3,4-dihydro-2,7-naphthyridin-1(2H)-one]	81.7%	0.0299 µM	
Cn1cnc(N2C[C@](C)(c3cccc(Cl)c3F)c3c(cnc(NC4CN(C(=O)C(C)(C)O)C4)c3F)C2=O)c1 [Example 3, (4R)-4-(3-Chloro-2-fluorophenyl)-5-fluoro-6-{[1-(2-hydroxy-2-methylpropanoyl)azetidin-3-yl]amino}-4-methyl-2-(1-methyl-1H-imidazol-4-yl)-3,4-dihydro-2,7-naphthyridin-1(2H)-one]	56%	0.112 µM	
C[C@]1(c2cccc(Cl)c2F)CN(c2ccc(CO)cn2)C(=O)c2cnc(NC3CN(C(=O)c4cccnn4)C3)c(F)c21 [Example 4, (4R)-4-(3-Chloro-2-fluorophenyl)-5-fluoro-2-[5-(hydroxymethyl)pyridin-2-yl]-4-methyl-6-{[1-(pyridazine-3-carbonyl)azetidin-3-yl]amino}-3,4-dihydro-2,7-naphthyridin-1(2H)-one]	96.3%	0.0663 µM	
C[C@]1(c2cccc(Cl)c2F)CN(c2ccccn2)C(=O)c2cnc(NC3CN(C(=O)[C@@H]4C[C@@H]4F)C3)c(F)c21 [Example 5, (4R)-4-(3-chloro-2-fluorophenyl)-5-fluoro-6-({1-[(1S,2S)-2-fluorocyclopropane-1-carbonyl]azetidin-3-yl}amino)-4-methyl-2-(pyridin-2-yl)-3,4-dihydro-2,7-naphthyridin-1(2H)-one]	64.9%	0.0277 µM	
C[C@]1(c2cccc(Cl)c2F)CN(c2ncccc2F)C(=O)c2cnc(NC3CN(C(=O)[C@@H]4C[C@@H]4F)C3)c(F)c21 [Example 6, (4R)-4-(3-chloro-2-fluorophenyl)-5-fluoro-6-({1-[(1S,2S)-2-fluorocyclopropane-1-carbonyl]azetidin-3-yl}amino)-2-(3-fluoropyridin-2-yl)-4-methyl-3,4-dihydro-2,7-naphthyridin-1(2H)-one]	58%	0.0222 µM	
Cn1cc(F)c(N2C[C@](C)(c3cccc(Cl)c3F)c3c(cnc(NC4CN(C(=O)C5(O)CCC5)C4)c3F)C2=O)n1 [Example 7, (4R)-4-(3-Chloro-2-fluorophenyl)-5-fluoro-2-(4-fluoro-1-methyl-1H-pyrazol-3-yl)-6-{[1-(1-hydroxycyclobutane-1-carbonyl)azetidin-3-yl]amino}-4-methyl-3,4-dihydro-2,7-naphthyridin-1(2H)-one]	123%	0.144 µM	
Cn1cc(F)c(N2C[C@](C)(c3cccc(Cl)c3F)c3c(cnc(NC4CN(C(=O)[C@H]5C[C@@H]5F)C4)c3F)C2=O)n1 [Example 8, (4R)-4-(3-Chloro-2-fluorophenyl)-5-fluoro-6-({1-[(1R,2S)-2-fluorocyclopropane-1-carbonyl]azetidin-3-yl}amino)-2-(4-fluoro-1-methyl-1H-pyrazol-3-yl)-4-methyl-3,4-dihydro-2,7-naphthyridin-1(2H)-one]	58.2%	0.0638 µM	
CN(C(=O)CN1CC(Nc2ncc3c(c2F)[C@@](C)(c2cccc(Cl)c2F)CN(c2nn(C)cc2F)C3=O)C1)C1CC1 [Example 11, 2-(3-{[(5R)-5-(3-Chloro-2-fluorophenyl)-4-fluoro-7-(4-fluoro-1-methyl-1H-pyrazol-3-yl)-5-methyl-8-oxo-5,6,7,8-tetrahydro-2,7-naphthyridin-3-yl]amino}azetidin-1-yl)-N-cyclopropyl-N-methylacetamide]	160%	0.0227 µM	
Cn1cc(F)c(N2C[C@](C)(c3cccc(Cl)c3F)c3c(cnc(NC4CN(C(=O)CN5CCCC5)C4)c3F)C2=O)n1 [Example 12, (4R)-4-(3-Chloro-2-fluorophenyl)-5-fluoro-2-(4-fluoro-1-methyl-1H-pyrazol-3-yl)-4-methyl-6-({1-[(pyrrolidin-1-γ1)acetyl]azetidin-3-yl}amino)-3,4-dihydro-2,7-naphthyridin-1(2H)-one]	77.9%	0.0435 µM	
CC(C)NCC(=O)N1CC(Nc2ncc3c(c2F)[C@@](C)(c2cccc(Cl)c2F)CN(c2nn(C)cc2F)C3=O)C1 [Example 13, (4R)-4-(3-Chloro-2-fluorophenyl)-5-fluoro-2-(4-fluoro-1-methyl-1H-pyrazol-3-yl)-4-methyl-6-[(1-{[(propan-2-γ1)amino]acetyl}azetidin-3-γ1)amino]-3,4-dihydro-2,7-naphthyridin-1(2H)-one]		0.108 µM	46.2%
C[C@]1(c2cccc(Cl)c2F)CN(c2cc(F)c(CN)cc2F)C(=O)c2cnc(NC3CN(C(=O)[C@@H]4C[C@@H]4F)C3)c(F)c21 [Example 14, (4R)-2-[4-(aminomethyl)-2,5-difluorophenyl]-4-(3-chloro-2-fluorophenyl)-5-fluoro-6-({1-[(1S,2S)-2-fluorocyclopropane-1-carbonyl]azetidin-3-yl}amino)-4-methyl-3,4-dihydro-2,7-naphthyridin-1(2H)-one]	69.4%	0.0337 µM	
C[C@]1(c2cccc(Cl)c2F)CN(c2ccc(N)cn2)C(=O)c2cnc(NC3CN(C(=O)[C@@H]4C[C@@H]4F)C3)c(F)c21 [Example 15, (4R)-2-(5-aminopyridin-2-yl)-4-(3-chloro-2-fluorophenyl)-5-fluoro-6-({1-[(1S,2S)-2-fluorocyclopropane-1-carbonyl]azetidin-3-yl}amino)-4-methyl-3,4-dihydro-2,7-naphthyridin-1(2H)-one]	61.5%	0.0315 µM	
